Assays:
[1] = system: CD62P on platelets; test: Platelet stimulation, CD62P expression by MLSC; type: cell-based, human
Method: Platelet stimulation. Thrombin stimulation was carried out on either washed platelets or 1:10 diluted whole blood in the presence of the fibrinogen cascade inhibitor peptide glycine-proline-arginine-proline (GPRP, 2 mM final concentration). Thrombin (5 U/ml) was added to 10 μl of sample in 75 μl Tyrode's buffer containing the GPRP (final total volume of 100 μl). Because the CTAD tubes contain reversible inhibitors of platelet activation, it was initially determined that a 10-fold dilution of the whole blood was sufficient to reduce the inhibitors below effective concentration and permit stimulation. […] Next, the reaction was incubated in a 37° C. water bath for 5 or 10 minutes and subsequently diluted to 1000 μl […] with Tyrode's buffer supplemented with 1.5 mM theophylline and 0.37 mM adenosine (final concentration). […]
Staining for MLSC. […] Twenty-one microliters of diluted sample was loaded into Flex32 capillary array and analyzed by Surroscan MLSC. […] Images were converted to flow cytometry standard (fcs) format with in-house software and analyzed with FlowJo™ cytometry analysis software (Tree Star, Inc., San Carlos, Calif.). Fluorescence intensities are compensated for spectral overlap of the dyes. […]

[2] = system: platelets; test: Total platelet count in EDTA and CTAD tubes, MLSC; type: cell-based, human; details: in the tubes
Method: (§1) Staining for MLSC. For whole blood platelet stains, 10 μl of whole blood was diluted into 990 μl of Tyrode's buffer supplemented with 1.5 mM theophylline and 0.37 mM adenosine for a final dilution of 1:100. Twenty microliters of diluted whole blood, thrombin-stimulated samples, or control samples were added to 96 well micro-titer plates containing 5 μl of the appropriate reagent cocktail. The cells were incubated in the dark at room temperature for 20 minutes. At the end of the incubation, 50 μl of modified PBS/BSA buffer supplemented with theophylline (1.5 mM)/adenosine (0.37 mM) (to prevent activation), and Zwittergent (50 mM) was added to all the wells and mixed thoroughly. Twenty-one microliters of diluted sample was loaded into Flex32 capillary array and analyzed by Surroscan MLSC. The assays are performed in homogeneous mode, without removal of unbound reagent. […] Images were converted to flow cytometry standard (fcs) format with in-house software and analyzed with FlowJo™ cytometry analysis software (Tree Star, Inc., San Carlos, Calif.). Fluorescence intensities are compensated for spectral overlap of the dyes.
(§2) Previous research has shown that addition of platelet inhibitors to the anti-coagulant greatly reduces the activation state of human platelets prior to testing. […] The sample was then analyzed using MLSC. […]

[3] = system: platelets; test: Pan platelet surface antigen expression (CD9, GPIIIA, GPIIB), EDTA versus CTAD samples, MLSC; type: cell-based, human
Method: as §1, §2

[4] = system: CD63 on platelets; test: CD63 activation marker on platelets in unfixed whole blood drawn into EDTA or CTAD tubes, MLSC; type: cell-based, human; details: for Mean Intensity CD63: mean relative intensity, entire platelet population
Method: (§3) Staining for MLSC. For whole blood platelet stains, 10 μl of whole blood was diluted into 990 μl of Tyrode's buffer supplemented with 1.5 mM theophylline and 0.37 mM adenosine for a final dilution of 1:100. Twenty microliters of diluted whole blood, thrombin-stimulated samples, or control samples were added to 96 well micro-titer plates containing 5 μl of the appropriate reagent cocktail. The cells were incubated in the dark at room temperature for 20 minutes. At the end of the incubation, 50 μl of modified PBS/BSA buffer supplemented with theophylline (1.5 mM)/adenosine (0.37 mM) (to prevent activation), and Zwittergent (50 mM) was added to all the wells and mixed thoroughly. Twenty-one microliters of diluted sample was loaded into Flex32 capillary array and analyzed by Surroscan MLSC. The assays are performed in homogeneous mode, without removal of unbound reagent. After all dilutions, the fluorescent platelet counts per capillary are about 1,000-2,000, comfortably in the range of 10 to 12,000 that is appropriate for the cytometry. This platelet count level provides appropriate counting statistics and avoids coincident events. Images were converted to flow cytometry standard (fcs) format with in-house software and analyzed with FlowJo™ cytometry analysis software (Tree Star, Inc., San Carlos, Calif.). Fluorescence intensities are compensated for spectral overlap of the dyes.
(§4) Previous research has shown that addition of platelet inhibitors to the anti-coagulant greatly reduces the activation state of human platelets prior to testing. Kuhne et al., Am. J. Hematol. 50:40-5 (1995); Mody et al., Transfus.Med. 9:147-54 (1999). […] Blood was obtained from a volunteer (set of 5 volunteers) and processed within 4 hours. This was done without fixation in order to maintain epitope integrity and allow for further activation studies. The samples were incubated with antibodies against platelet surface activation markers CD62P and CD63, as well as antibodies against GPIIIA, an antigen present on all platelets. All platelets were identified with GPIIIa (Cy5.5). The sample was then analyzed using MLSC. Gates for the Cy5-CD62P and Cy5-CD63 positive events were drawn based upon MOPC-21 control antibody staining.

[5] = system: CD62P on platelets; test: CD62P activation marker on platelets in unfixed whole blood drawn into EDTA or CTAD tubes, MLSC; type: cell-based, human; details: for Mean Intensity CD62P: mean relative intensity, entire platelet population
Method: as §3, §4

[6] = system: platelet factor 4 (PF4); test: Platelet factor 4 in plasma by chemiluminescent ELISA; set-up: species or system human
Method: Platelet Factor 4 was measured by chemiluminescent using ELISA. Antibodies were obtained from U.S. Biologicals (Swampscott, Mass.) and Affinity Biologicals Enzyme Research Lab. (Southbend, Ind.), recombinant standard from Chemicon (Temecula, Calif.). Briefly, Corning black opaque 96 well microtiter plates were coated with rabbit polyclonal anti-PF4 (human) overnight at 4° C. Plates were washed and samples or standards were added to the wells and allowed to incubate at room temperature. After washing, biotinylated polyclonal sheep anti-PF4 (human) was added followed by washing and the addition of avidin-alkaline Phosphatase. Plates were washed and the CDP-Star R (Tropix, Bedford, Mass.)) substrate added, allowed to develop and read on the Wallac Victor plate reader. The assay sensitivity of the assay is 20 pg/ml.
PF4 expression was determined by ELISA (sensitivity of 20 pg/ml).

[7] = system: CD62P on platelets; details: thrombin; expected value; cited from earlier work
[8] = system: CD63 on platelets; details: thrombin; expected value; cited from earlier work
[9] = system: CD63 on platelets; test: Platelet stimulation, CD63 expression by MLSC; type: cell-based, human
Method: Platelet stimulation. Thrombin stimulation was carried out on either washed platelets or 1:10 diluted whole blood in the presence of the fibrinogen cascade inhibitor peptide glycine-proline-arginine-proline (GPRP, 2 mM final concentration). Thrombin (5 U/ml) was added to 10 μl of sample in 75 μl Tyrode's buffer containing the GPRP (final total volume of 100 μl). Because the CTAD tubes contain reversible inhibitors of platelet activation, it was initially determined that a 10-fold dilution of the whole blood was sufficient to reduce the inhibitors below effective concentration and permit stimulation. […] Next, the reaction was incubated in a 37° C. water bath for 5 or 10 minutes and subsequently diluted to 1000 μl […] with Tyrode's buffer supplemented with 1.5 mM theophylline and 0.37 mM adenosine (final concentration). In order to stop the stimulation and prevent non-specific activation of the control and test samples caused by the handling and staining techniques, theophylline and adenosine were added to the samples. A control sample lacking only the thrombin was run in parallel.
as §1, with “At the end of the incubation, 50 μl of modified PBS/BSA buffer supplemented with theophylline (1.5 mM)/adenosine (0.37 mM) (to prevent activation), and Zwittergent (50 mM) was added to all the wells and mixed thoroughly.” left out, “MLSC.” for “MLSC. The assays are performed in homogeneous mode, without removal of unbound reagent.”, “dyes. […]” for “dyes.”

[10] = 24 hr from draw, average of 4 measurements
[11] = 48 hr from draw, average of 5 subjects
[12] = thrombin 5 U/ml, 5 minute activation, whole blood 1:10 with GPRP, average of 19 to 22 subjects

## Nc1ncnc2c1ncn2[C@@H]1O[C@H](COP(=O)(O)OP(=O)(O)O)[C@@H](O)[C@H]1O [ADP, adenosine diphosphate]
[1]; 30-minute stimulation with ADP
  platelets expressing CD62P: greater than 60%

## O=C(O)CN(CCN(CC(=O)O)CC(=O)O)CC(=O)O [EDTA, Ethylene-diamino-tetra-acetic acid]
[2]
  change in total platelet count from 4 to 48 hours: small but significant decrease
[3]; EDTA relative to CTAD
  mean fluorescence intensity of GPIIB, lower in EDTA compared to CTAD: about 40%
[3]; between EDTA and CTAD samples
  differences in expression of pan surface antigens CD9 or GPIIIA on platelets: no observable differences
[4]; [10]
  % Positive CD63: 37 ± 22%
[4]; 24 hr from draw
  Mean Intensity CD63: 690 ± 77
[4]; [11]
  % Positive CD63: 15 ± 7.0 %
[4]; 48 hr from draw
  Mean Intensity CD63: 680 ± 42
[4]; <4 hr from draw, average of 5 subjects
  % Positive CD63: 22 ± 20 %
[4]; <4 hr from draw
  Mean Intensity CD63: 760 ± 43
[5]; [10]
  % Positive CD62P: 49 ± 20 %
[5]; 24 hr from draw
  Mean Intensity CD62P: 910 ± 130
[5]; [11]
  % Positive CD62P: 41 ± 4.8 %
[5]; 48 hr from draw
  Mean Intensity CD62P: 900 ± 60
[5]; <4 hr from draw
  Mean Intensity CD62P: 1110 ± 230
[5]; <4 hr from draw, platelets identified with GPIIIA, average of 5 subjects
  % Positive CD62P: 37 ± 17 %
[5]; EDTA samples, all time points
  range of platelet activation levels observed: 8 to 50%
[5]; matched samples analyzed over 48 hours
  platelets positive for CD62P: 40-50%
[6]; EDTA relative to CTAD, p<0.05
  PF4 release, times greater in EDTA than in CTAD samples: 5 times
[6]; average of 5 individuals, matched EDTA and CTAD draws
  PF4 in plasma: 627 ± 449 pg/mL

## thrombin
[1]; [12]
  Observed CD62P positive platelets: 192,000 ± 53,000 platelets/μl
[7]
  Expected % CD62P positive: >95%
[8]
  Expected % CD63 positive: >80%
[9]; five minute stimulation with thrombin
  expression level of CD63 on platelets after stimulation: greatly increased
[9]; [12]
  Observed CD63 positive platelets: 142,000 ± 40,000 platelets/μl
[9]; thrombin activation (5 U/ml, 5 minute), CTAD whole blood
  % of total platelets expressing CD63: 72 ± 8.2%

Source: US7387880B2, “Method for monitoring resting and activated platelets in unfixed blood samples” (PPD Biomarker Discovery Sciences, LLC, priority 2000, dated 2008)
